Laboratory results published in PMC10773943, “Molecular cloning and functional analysis of 4-coumarate: CoA ligases from Marchantia paleacea and their roles in lignin and flavanone biosynthesis” (PLOS ONE, 2024).

How the values were obtained:
Assay type in all cases: biochemical, Marchantia paleacea
Details in all cases: ATP, MgCl2, 200 mM Tris-HCl (assay: 5 mM ATP, 300 μM CoA, 5 mM MgCl2, pH 7.5, 30°C)
Mp4CL1 [1] = test system: T1, Mp4CL1; experiment: UV absorbance of CoA ester formation at […] nm
T1 construct: expressed in E. coli BL21(DE3), purified; from transcriptome SRP078650

Mp4CL1 [2] = test system: T1, Mp4CL1; experiment: UV absorbance of CoA ester formation at […] nm; remark: listed apart in the source
Mp4CL1 [3] = test system: T1, Mp4CL1; experiment: HPLC quantification of CoA ester with calibration curve
From the text: HPLC quantification of CoA ester with calibration curve on Mp4CL1

Mp4CL1 [4] = test system: T1, Mp4CL1; experiment: UV absorbance of CoA ester formation at […] nm; remark: listed apart in the source

## O=C(O)/C=C/c1ccc(O)c(O)c1 [caffeic acid]
Mp4CL1 [1]
  Km: 113 ± 24.3 µM

## O=C(O)/C=C/c1ccccc1 [cinnamic acid]
Mp4CL1 [2]
  Km: 115 ± 16.6 µM

## O=C(O)CCc1ccc(O)cc1 [dihydro-p-coumaric acid]
Mp4CL1 [3]
  Km: 289 ± 36.5 µM

## COc1cc(/C=C/C(=O)O)ccc1O [ferulic acid]
Mp4CL1 [1]
  Km: 414 ± 95.7 µM

## O=C(O)/C=C/c1ccc(O)cc1 [p-coumaric acid]
Mp4CL1 [4]
  Km: 94 ± 30.9 µM
